Laboratory results taken from patent US20020010210A1, “PHARMACEUTICAL PREPARATION AND METHOD FOR TREATING CANCER” (priority 1997, published 2002).
Structures can show the parent of a compound that is named as a salt. Ends that are not written are not given here.

How the values were obtained:
Assay type in all cases: in vivo
[1] = system: spontaneous breast cancer rat cells (SST-2); assay: Lung metastasis of implanted SST-2 cells in SHR rats (Example 3); details: 35 days after implantation; for Number of Metastasis Colonies (average), Peroral Administration: 1 mg/rat perorally from day of implantation to day 34; for Number of Metastasis Colonies (average), Subcutaneous Injection: 1 mg/rat subcutaneous injection from day of implantation to day 34
Procedure: 1×100,000 spontaneous breast cancer rat cells (SST-2) were subcutaneously implanted into the back of a rat (SHR rat) (5 rats per group) suffering from spontaneous hypertension. After 35 days, the rats were sacrificed, and the lung weight and the number of colonies formed were measured to examine the degree of metastasis of SST-2 to the lung. The compounds shown in Tables 3 and 4 each was administered perorally or through subcutaneous injection in a dose of 1 mg/rat over the period from the day of implantation to 34 days after implantation. The number of colonies formed was compared with that in the control group not subjected to any treatment, to examine metastasis to the lung.

[2] = system: spontaneous breast cancer rat cells (SST-2); assay: Lung metastasis of SST-2 in SHR rats, ascorbic acid derivative combined with known anticancer agent (Example 4)
Procedure: 1×100,000 spontaneous breast cancer rat cells (SST-2) were subcutaneously implanted into the back of a rat (SHR rat) (5 rats per group) suffering from spontaneous hypertension. After 35 days, the rats were sacrificed, and the number of colonies formed were measured to examine the degree of metastasis of SST-2 to the lung.
The ascorbic acid derivatives used were L-ascorbic acid-2-phosphate-6-palmitate, L-ascorbic acid-6-benzoate (reference compound) and magnesium L-ascorbic acid-2-phosphate.
Each of the groups treated with an ascorbic acid derivative was subjected to a test of administering the ascorbic acid derivative alone and to a test of administering the ascorbic acid derivative in combination with a known anticancer agent as shown in Table 4. Furthermore, tests of administering the anticancer agents alone were conducted. Over the period of from 7 days prior to implantation to 34 days after the implantation, the ascorbic acid derivative was injected through a vein in the tail region at a dose of 1 mg/1 day/rat. Each of the known anticancer agents was perorally administered in a minimum dose by reference to the concentration for a single use case described in the publication, Tyakuhin Yoran (Medical Product Handbook), 4th Edition, pp. 1474-1509, Yakugyo Jiho-Sha (1989), and the number of colonies formed after metastasis was compared.

[3] = system: spontaneous breast cancer rat cells (SST-2); assay: as above; remark: listed apart in the source
[4] = ascorbic acid derivative 1 mg/1 day/rat tail vein, day -7 to day 34, known anticancer agent perorally in minimum dose, colonies after 35 days

Compound	Number of Metastasis Colonies (average), Peroral Administration [1]	Number of Metastasis Colonies (average), Subcutaneous Injection [1]	Cancer metastasis inhibitory effect of combination with L-Ascorbic Acid-2-Phosphate-6-Palmitate versus each agent alone [2, 4]	Cancer metastasis inhibitory effect of combination with L-Ascorbic Acid-2-Phosphate-6-Benzoate versus each agent alone [3, 4]	Cancer metastasis inhibitory effect of combination with L-Ascorbic Acid-6-Palmitate versus each agent alone [3, 4]	Cancer metastasis inhibitory effect of combination with L-Ascorbic Acid-2-Phosphate-6-Palmitate versus each agent alone ([2]; rat, in vivo)	Cancer metastasis inhibitory effect of combination with L-Ascorbic Acid-2-Phosphate-6-Benzoate versus each agent alone ([3]; rat, in vivo)	Cancer metastasis inhibitory effect of combination with L-Ascorbic Acid-6-Palmitate versus each agent alone ([3]; rat, in vivo)
CC(C)(C)C(=O)OC[C@H](O)[C@H]1OC(=O)C(O)=C1OP(=O)(O)O [6-O-Pivaloyl-L-ascorbic acid-3-phosphate]	89.6	86.2						
CCCCCCCCCCCCCCCC(=O)OC[C@H](O)[C@H]1OC(=O)C(OC(=O)CCCCCCCCCCCCCCC)=C1O [L-Ascorbic acid-2,6-dipalmitate]	89.8	86.6						
COC1(O[C@H]2CC[C@H]3[C@@H]4CC[C@H]5C[C@@H]6S[C@@H]6C[C@]5(C)[C@H]4CC[C@]23C)CCCC1 [mebitiostan]			+	+	−			
S=c1nc[nH]c2nc[nH]c12 [meercaptopurine]						+	+	−
NC(Cc1ccc(N(CCCl)CCCl)cc1)C(=O)O (stereo not shown) [merphalan]			+	+	−			
CN(Cc1cnc2nc(N)nc(N)c2n1)c1ccc(C(=O)N[C@@H](CCC(=O)O)C(=O)O)cc1 [methotrexate]			+	+	−			
CO[C@@]12[C@H](COC(N)=O)C3=C(C(=O)C(C)=C(N)C3=O)N1C[C@@H]1N[C@@H]12 [mitomycin C]						+	+	−
Cc1ncc(CNC(=O)N(CCCl)N=O)c(N)n1 [nimustine hydrochloride]						+	+	−
CNNCc1ccc(C(=O)NC(C)C)cc1 [procarbazine hydrochloride]			+	+	−			
CC/C(=C(\c1ccccc1)c1ccc(OCCN(C)C)cc1)c1ccccc1 [tamoxifen citrate]			+	+	−			
O=c1[nH]c(=O)n(C2CCCO2)cc1F (stereo not shown) [tegaful]						+	+	−
OC[C@H]1O[C@@H](n2cnc3c(S)ncnc32)[C@H](O)[C@@H]1O [thioinosine]			+	+	−			
CC[C@]1(O)C[C@@H]2CN(CCc3c([nH]c4ccccc34)[C@@](C(=O)OC)(c3cc4c(cc3OC)N(C)[C@H]3[C@@](O)(C(=O)OC)[C@H](OC(C)=O)[C@]5(CC)C=CCN6CC[C@]43[C@@H]65)C2)C1 [vinblastine sulfate]			+	+	−			
CC[C@]1(O)C[C@H]2CN(CCc3c([nH]c4ccccc34)[C@@](C(=O)OC)(c3cc4c(cc3OC)N(C=O)[C@H]3[C@@](O)(C(=O)OC)[C@H](OC(C)=O)[C@]5(CC)C=CCN6CC[C@]43[C@@H]65)C2)C1 [vincristine sulfate]			+	+	−			
CC[C@]1(O)C[C@@H]2CN(CCc3c([nH]c4ccccc34)[C@@](C(=O)OC)(c3cc4c(cc3OC)N(C)[C@H]3[C@@](O)(C(N)=O)[C@H](O)[C@]5(CC)C=CCN6CC[C@]43[C@@H]65)C2)C1 [vindesine sulfate]			+	+	−			
CDPGYIGSR-NH2 [CDPGYGSR-NH2]						+	+	−
CIZOFERAN			+	+	−			
L-asparginase						+	+	−
PLEOMYCIN sulfate						+	+	−
Platelet Factor-4						+	+	−
lentinan			+	+	−			
neocarzinostatin			+	+	−			
peptidoglycan			+	+	−			
pleomycin hydrochloride						+	+	−
protamine						+	+	−
vebromycin sulfate						+	+	−
